Experimental data published in PubChem BioAssay (NCI).
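Exposure lasted 48 hours, with cells grown in 96-well plates and compounds tested at five concentrations. TGI marks complete inhibition of growth.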

Key:
Assay in all cases: NCI anticancer screen, dose series, 48 h
MCF7 breast = system: MCF7 breast
SW-620 colon = system: SW-620 colon
HOP-62 NSCLC = system: HOP-62 NSCLC
OVCAR-4 ovarian = system: OVCAR-4 ovarian
OVCAR-5 ovarian = system: OVCAR-5 ovarian
MOLT-4 leukemia = system: MOLT-4 leukemia
SF-539 CNS = system: SF-539 CNS
BT-549 breast = system: BT-549 breast
HCT-15 colon = system: HCT-15 colon
SNB-19 CNS = system: SNB-19 CNS
HOP-92 NSCLC = system: HOP-92 NSCLC
SF-295 CNS = system: SF-295 CNS
MDA-MB-231 breast = system: MDA-MB-231 breast
HS 578T breast = system: HS 578T breast
A549 NSCLC = system: A549 NSCLC
M14 melanoma = system: M14 melanoma
CCRF-CEM leukemia = system: CCRF-CEM leukemia
OVCAR-8 ovarian = system: OVCAR-8 ovarian
HL-60(TB) leukemia = system: HL-60(TB) leukemia
SR leukemia = system: SR leukemia
UO-31 renal = system: UO-31 renal
SK-MEL-28 melanoma = system: SK-MEL-28 melanoma
T-47D breast = system: T-47D breast
RXF 393 renal = system: RXF 393 renal
786-0 renal = system: 786-0 renal
TK-10 renal = system: TK-10 renal
HCT-116 colon = system: HCT-116 colon
IGROV1 ovarian = system: IGROV1 ovarian
SF-268 CNS = system: SF-268 CNS
SN12C renal = system: SN12C renal
HT29 colon = system: HT29 colon
OVCAR-3 ovarian = system: OVCAR-3 ovarian
MALME-3M melanoma = system: MALME-3M melanoma
SK-MEL-5 melanoma = system: SK-MEL-5 melanoma
ACHN renal = system: ACHN renal
CAKI-1 renal = system: CAKI-1 renal
NCI-H23 lung = system: NCI-H23 lung
COLO 205 colon = system: COLO 205 colon
UACC-257 melanoma = system: UACC-257 melanoma
NCI-H460 lung = system: NCI-H460 lung
SK-MEL-2 melanoma = system: SK-MEL-2 melanoma
UACC-62 melanoma = system: UACC-62 melanoma
NCI/ADR-RES ovarian = system: NCI/ADR-RES ovarian
K-562 leukemia = system: K-562 leukemia
MDA-N = system: MDA-N
NCI-H226 lung = system: NCI-H226 lung
NCI-H522 lung = system: NCI-H522 lung
EKVX NSCLC = system: EKVX NSCLC
SNB-75 CNS = system: SNB-75 CNS
KM12 colon = system: KM12 colon
PC-3 prostate = system: PC-3 prostate
DU-145 prostate = system: DU-145 prostate
LOX IMVI melanoma = system: LOX IMVI melanoma
A498 renal = system: A498 renal
MDA-MB-435 = system: MDA-MB-435
U251 CNS = system: U251 CNS
HCC-2998 colon = system: HCC-2998 colon
RPMI-8226 leukemia = system: RPMI-8226 leukemia
SK-OV-3 ovarian = system: SK-OV-3 ovarian

Structure (SMILES): NC(Cc1cnc(I)[nH]1)C(=O)O (centres undefined)
- TGI (MCF7 breast): > 100 µM
- TGI (SW-620 colon): > 100 µM
- TGI (HOP-62 NSCLC): > 100 µM
- TGI (OVCAR-4 ovarian): > 100 µM
- TGI (OVCAR-5 ovarian): > 100 µM
- TGI (MOLT-4 leukemia): > 100 µM
- TGI (SF-539 CNS): > 100 µM
- TGI (BT-549 breast): > 100 µM
- TGI (HCT-15 colon): > 100 µM
- TGI (SNB-19 CNS): > 100 µM
- TGI (HOP-92 NSCLC): 82.9 µM
- TGI (SF-295 CNS): > 100 µM
- TGI (MDA-MB-231 breast): > 100 µM
- TGI (HS 578T breast): 63.8 µM
- TGI (A549 NSCLC): > 100 µM
- TGI (M14 melanoma): > 100 µM
- TGI (CCRF-CEM leukemia): > 100 µM
- TGI (OVCAR-8 ovarian): > 100 µM
- TGI (HL-60(TB) leukemia): 6.41 µM
- TGI (SR leukemia): > 100 µM
- TGI (UO-31 renal): > 100 µM
- TGI (SK-MEL-28 melanoma): > 100 µM
- TGI (T-47D breast): > 100 µM
- TGI (RXF 393 renal): > 100 µM
- TGI (786-0 renal): > 100 µM
- TGI (TK-10 renal): > 100 µM
- TGI (HCT-116 colon): > 100 µM
- TGI (IGROV1 ovarian): > 100 µM
- TGI (SF-268 CNS): > 100 µM
- TGI (SN12C renal): > 100 µM
- TGI (HT29 colon): > 100 µM
- TGI (OVCAR-3 ovarian): > 100 µM
- TGI (MALME-3M melanoma): 75.2 µM
- TGI (SK-MEL-5 melanoma): > 100 µM
- TGI (ACHN renal): > 100 µM
- TGI (CAKI-1 renal): > 100 µM
- TGI (NCI-H23 lung): > 100 µM
- TGI (COLO 205 colon): > 100 µM
- TGI (UACC-257 melanoma): > 100 µM
- TGI (NCI-H460 lung): > 100 µM
- TGI (SK-MEL-2 melanoma): > 100 µM
- TGI (UACC-62 melanoma): > 100 µM
- TGI (NCI/ADR-RES ovarian): > 100 µM
- TGI (K-562 leukemia): > 100 µM
- TGI (MDA-N): > 100 µM
- TGI (NCI-H226 lung): > 100 µM
- TGI (NCI-H522 lung): 72.9 µM
- TGI (EKVX NSCLC): > 100 µM
- TGI (SNB-75 CNS): > 100 µM
- TGI (KM12 colon): > 100 µM
- TGI (PC-3 prostate): > 100 µM
- TGI (DU-145 prostate): > 100 µM
- TGI (LOX IMVI melanoma): > 100 µM
- TGI (A498 renal): > 100 µM
- TGI (MDA-MB-435): > 100 µM
- TGI (U251 CNS): > 100 µM
- TGI (HCC-2998 colon): > 100 µM
- TGI (RPMI-8226 leukemia): > 100 µM
- TGI (SK-OV-3 ovarian): > 100 µM
